The record followed here is patent US7683168B2, “Compositions of novel opioid compounds and method of use thereof” (priority 2005, dated 2010).

The target of one series is T1, κ opioid receptor (Cavia porcellus, UniProt P41144).
T1 construct: tissue Pel-Freeze Biological Inc. (Rogers, Ark.); host or cells: guinea pig cerebellum
Put plainly: radioligand binding, κ opioid receptor, guinea pig cerebellum. The settings on record: tritium-labeled U69593.

The test system of series [1] is seizure-like convulsions in mice. Put plainly: mouse seizure-like convulsions. It is filed as in vivo. A digest of the protocol: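 Male CD-1 mice (Charles River, Raleigh, N.C.) of 20-25 g were dosed and watched for one hour to detect seizure-like convulsions mediated by central delta receptors. An event was counted when clonic or tonic/clonic muscle movements involved the whole body, usually followed by brief catalepsy, judged by no attempt to withdraw front paws from a bar 2-3 inches above the floor.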

In a further series the target is T2, δ opioid receptor (Rattus norvegicus, UniProt P33533).
T2 construct: tissue Pel-Freeze Biological Inc. (Rogers, Ark.); host or cells: rat whole brain
Put plainly: radioligand binding, δ opioid receptor, rat brain membranes. The settings on record: cell marked (rat), tritium-labeled Deltorphin II.

The subject of a further series is guinea pig ileum. Put plainly: electrically stimulated guinea pig ileum (GPI) ED50. Format: cell-based. The settings on record: Cavia porcellus; ED50, inhibition of electrically induced contractions. As for the experimental part:
Further the compounds of formula (1) were evaluated for in vitro opioid receptor activity in various receptor systems, including mouse vas deferens (Mouse Vas Deferens ED50), and guinea pig ileum (Guinea Pig Ileum ED50). The assay procedures used for such determinations of receptor activity are set out below.
Intact ileums (about 3 cm length) were removed from guinea pig and suspended with 1 g of tension in a bath chamber as described for the vasa deferentia. The ileums were stimulated with electrical square-wave pulses of 0.1-Hz, 1 msec pulse duration at supramaximal voltage.
The ED50 values were extrapolated from curves showing the dose concentration plotted against the response (J. A. H. Lord, A. A. Waterfield, J. Hughes, H. W. Kosterlitz, Nature 267, 495, (1977)).

A further series has as its target T3, μ opioid receptor (Rattus norvegicus, UniProt P33535).
T3 construct: tissue Pel-Freeze Biological Inc. (Rogers, Ark.); host or cells: rat whole brain
Put plainly: radioligand binding, μ opioid receptor, rat brain membranes. The conditions noted are these: cell marked (rat), tritium-labeled DAMGO.

The next series relates to mouse vas deferens. Nature of the series: electrically stimulated mouse vas deferens (MVD) ED50. Format: cell-based. The conditions noted are these: ED50, inhibition of electrically induced contractions.
A further series deals with T4, human delta receptor (Homo sapiens, UniProt P41143).
T4 construct: purchased Perkin Elmer, Boston, Mass; 6110549; host or cells: HEK-293 cells
Nature of the series: radioligand binding, human delta receptor, HEK-293 cell membranes. The conditions noted are these: cell not marked (rat), species not given, read-out: δ.

In another series the target is T5, human mu opioid receptor (Homo sapiens, UniProt P35372).
T5 construct: purchased Perkin Elmer, Boston, Mass; 6110535; host or cells: CHO cells
Put plainly: radioligand binding, human mu opioid receptor, CHO cell membranes. The conditions noted are these: species not given, read-out: μ.

T5 sequence (P35372 whole entry): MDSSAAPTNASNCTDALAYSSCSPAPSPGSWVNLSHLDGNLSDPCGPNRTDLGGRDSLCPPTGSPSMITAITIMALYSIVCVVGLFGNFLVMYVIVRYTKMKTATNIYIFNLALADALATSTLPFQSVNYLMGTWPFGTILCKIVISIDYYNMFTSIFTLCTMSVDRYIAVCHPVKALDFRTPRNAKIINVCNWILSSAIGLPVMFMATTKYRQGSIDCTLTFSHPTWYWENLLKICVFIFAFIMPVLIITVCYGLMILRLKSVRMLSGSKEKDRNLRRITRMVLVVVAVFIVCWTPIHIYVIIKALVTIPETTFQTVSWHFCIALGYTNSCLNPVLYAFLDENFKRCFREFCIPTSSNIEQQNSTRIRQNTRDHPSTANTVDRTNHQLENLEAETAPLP
T3 sequence (P33535 whole entry): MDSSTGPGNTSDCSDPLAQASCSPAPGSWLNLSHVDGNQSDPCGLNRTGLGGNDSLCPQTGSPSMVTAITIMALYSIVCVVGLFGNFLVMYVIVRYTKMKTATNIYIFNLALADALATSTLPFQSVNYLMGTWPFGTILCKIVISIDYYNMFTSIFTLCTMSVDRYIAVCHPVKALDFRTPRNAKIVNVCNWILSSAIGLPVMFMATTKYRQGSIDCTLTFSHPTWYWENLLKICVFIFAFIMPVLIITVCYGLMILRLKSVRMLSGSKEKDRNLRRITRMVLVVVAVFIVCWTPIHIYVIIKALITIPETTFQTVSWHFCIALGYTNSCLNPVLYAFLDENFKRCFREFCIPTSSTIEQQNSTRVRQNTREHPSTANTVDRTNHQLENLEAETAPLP
T2 sequence (P33533 whole entry): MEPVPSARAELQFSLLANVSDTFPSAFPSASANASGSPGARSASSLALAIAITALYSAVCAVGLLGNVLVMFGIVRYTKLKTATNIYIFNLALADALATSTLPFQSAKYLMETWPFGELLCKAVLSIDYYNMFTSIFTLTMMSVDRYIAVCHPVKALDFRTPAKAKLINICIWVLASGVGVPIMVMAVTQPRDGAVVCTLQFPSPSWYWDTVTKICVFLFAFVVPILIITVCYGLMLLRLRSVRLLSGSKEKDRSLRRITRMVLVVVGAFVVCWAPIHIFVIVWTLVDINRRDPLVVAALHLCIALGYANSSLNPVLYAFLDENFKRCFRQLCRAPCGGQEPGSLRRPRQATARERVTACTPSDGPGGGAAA
T4 sequence (P41143 whole entry): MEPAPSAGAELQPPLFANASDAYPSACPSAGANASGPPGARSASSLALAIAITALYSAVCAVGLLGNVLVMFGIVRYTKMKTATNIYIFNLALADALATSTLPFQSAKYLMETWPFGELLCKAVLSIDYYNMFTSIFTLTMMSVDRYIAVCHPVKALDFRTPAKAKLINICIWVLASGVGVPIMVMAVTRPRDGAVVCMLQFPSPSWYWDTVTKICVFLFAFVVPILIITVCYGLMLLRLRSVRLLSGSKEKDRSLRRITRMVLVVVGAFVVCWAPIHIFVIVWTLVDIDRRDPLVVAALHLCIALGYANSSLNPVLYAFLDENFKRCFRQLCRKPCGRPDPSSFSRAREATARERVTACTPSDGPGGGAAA
T1 sequence (P41144 whole entry): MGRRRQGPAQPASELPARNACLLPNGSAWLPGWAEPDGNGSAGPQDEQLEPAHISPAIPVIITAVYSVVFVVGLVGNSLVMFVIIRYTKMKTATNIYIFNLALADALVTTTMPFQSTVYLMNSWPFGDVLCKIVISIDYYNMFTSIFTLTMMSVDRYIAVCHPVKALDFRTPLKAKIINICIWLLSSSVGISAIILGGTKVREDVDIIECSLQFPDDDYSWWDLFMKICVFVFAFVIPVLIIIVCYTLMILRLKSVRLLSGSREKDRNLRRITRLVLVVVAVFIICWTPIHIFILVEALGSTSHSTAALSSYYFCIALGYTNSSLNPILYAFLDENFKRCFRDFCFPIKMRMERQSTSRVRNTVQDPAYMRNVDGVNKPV

Consider `C=CCN1C[C@H](C)N([C@@H](c2cccc(O)c2)c2cccc(C(=O)N3CCCN(CCCC(=O)OCC)CC3)c2)C[C@H]1C`, for which the Ki at κ opioid receptor was determined as 1.22 nM; at δ opioid receptor, 1.66 nM; at μ opioid receptor, 1.76 nM. In series [1] (10 mg/kg IV), this compound came in with a Seiz. of 0% 10 mg/kg IV. Moreover, the EC50 came to 198 nM with guinea pig ileum and 22.6 nM in the series with mouse vas deferens.

On to `C=CCN1C[C@H](C)N(C(c2cccc(O)c2)c2cccc(C(=O)N3CCCN(CC(=O)OCC)CC3)c2)C[C@H]1C` (some centres unmarked), for which the Ki on κ opioid receptor is 4.15 nM; at δ opioid receptor it was 1.35 nM; on μ opioid receptor, 3.33 nM. The compound further came in with a Seiz. in series [1] (10 mg/kg IV) of 25% 10 mg/kg IV. In addition, a half-maximal response with mouse vas deferens (EC50) required 1.36 nM.

For the compound `C=CCN1C[C@H](C)N([C@@H](c2cccc(O)c2)c2cccc(C(=O)N3CCN(CCCC(=O)O)CC3)c2)C[C@H]1C` [Example 75], the Seiz. in series [1] (10 mg/kg IV) is on record as 0% 10 mg/kg IV. Also, the EC50 in the series on guinea pig ileum was 178 nM; with mouse vas deferens, 4.1 nM. The Ki was 25.3 nM on human delta receptor and 10.8 nM at human mu opioid receptor.

`C=CCN1C[C@H](C)N([C@@H](c2cccc(O)c2)c2cccc(C(=O)N3CCN(CCCCC(=O)O)CC3)c2)C[C@H]1C` [Example 84, 5-(4-{3-[(R)-((2S,5R)-4-Allyl-2,5-dimethyl-piperazin-1-yl)-(3-hydroxy-phenyl)-methyl]-benzoyl}-piperazin-1-yl)-pentanoic acid] came in with a Seiz. in series [1] (10 mg/kg IV) of 0% 10 mg/kg IV. The EC50 in the series on guinea pig ileum is 209 nM; with mouse vas deferens, 3.76 nM. In addition, the Ki came out at 13.4 nM on human delta receptor and 57.3 nM at human mu opioid receptor.

In the case of `C=CCN1C[C@H](C)N([C@@H](c2cccc(O)c2)c2cccc(C(=O)N3CCCN(CCCCC(=O)O)CC3)c2)C[C@H]1C`, the Ki on κ opioid receptor was determined as 27.7 nM; at δ opioid receptor it was 6.43 nM; on μ opioid receptor it was 9 nM. For the same compound, the Seiz. in series [1] (10 mg/kg IV) and in series [1] (100 mg/kg SC) was 0% 10 mg/kg IV 0% 100 mg/kg SC throughout. Also, the EC50 in the series on mouse vas deferens is 3.33 nM.

Consider `C[C@@H]1CN([C@@H](c2cccc(O)c2)c2cccc(C(=O)N3CCCN(CCC(=O)O)CC3)c2)[C@@H](C)CN1Cc1cccc(F)c1`, for which the Seiz. in series [1] (20 mg/kg IV) and in series [1] (200 mg/kg PO & SC) was 0% 200 mg/kg PO & SC 0% 20 mg/kg IV in each case. The EC50 is 154 nM with guinea pig ileum and 4 nM in the series with mouse vas deferens. Moreover, the figures for the Ki on human delta receptor and on human mu opioid receptor were 4.17 nM and 7.7 nM, respectively.

For `CCOC(=O)CN1CCCN(C(=O)c2cccc(C(c3cccc(O)c3)N3C[C@@H](C)N(Cc4cccc(F)c4)C[C@@H]3C)c2)CC1` (some centres unmarked), the Seiz. in series [1] (10 mg/kg IV) is recorded as 20% 10 mg/kg IV. Moreover, the EC50 turned out to be 761 nM in the series with guinea pig ileum and 13.4 nM in the series on mouse vas deferens. Further, the Ki is 5.4 nM on human delta receptor and 2.6 nM at human mu opioid receptor.

Compound `C=CCN1C[C@H](C)N([C@@H](c2cccc(O)c2)c2cccc(C(=O)N3CCC(O)CC3)c2)C[C@H]1C` [Example 134, {3-[(R)-((2S,5R)-4-Allyl-2,5-dimethyl-piperazin-1-yl)-(3-hydroxy-phenyl)-methyl]-phenyl}-(4-hydroxy-piperidin-1-yl)-methanone] returned a Seiz. in series [1] (10 mg/kg IV) of 0% 10 mg/kg IV. The EC50 in the series on guinea pig ileum is 46.7 nM; in the series on mouse vas deferens it was 5.44 nM. The Ki is 0.36 nM on human delta receptor and 1.1 nM on human mu opioid receptor.

In turn, `C[C@@H]1CN([C@@H](c2cccc(O)c2)c2cccc(C(=O)N3CCN(CCCC(=O)O)CC3)c2)[C@@H](C)CN1Cc1ccccc1` [Example 80, 4-(4-{3-[(R)-((2S,5R)-4-Benzyl-2,5-dimethyl-piperazin-1-yl)-(3-hydroxy-phenyl)-methyl]-benzoyl}-piperazin-1-yl)-butyric acid] displayed a Seiz. in series [1] (10 mg/kg IV) of 0% 10 mg/kg IV. The EC50 came to 104 nM in the series with guinea pig ileum and 0.34 nM in the series with mouse vas deferens. Besides, the Ki amounted to 5.7 nM on human delta receptor and 5.3 nM at human mu opioid receptor.

The compound `CCOC(=O)CCN1CCCN(C(=O)c2cccc([C@H](c3cccc(O)c3)N3C[C@@H](C)N(Cc4cccc(F)c4)C[C@@H]3C)c2)CC1` displayed a Seiz. in series [1] (10 mg/kg IV) of 20% 10 mg/kg IV. For the same compound, the EC50 was 978 nM in the series on guinea pig ileum and 17.1 nM in the series with mouse vas deferens. The Ki at human delta receptor was 71 nM; on human mu opioid receptor, 4.8 nM.

In series [1] (10 mg/kg IV), `CCOC(=O)CN1CCN(C(=O)c2cccc([C@H](c3cccc(O)c3)N3C[C@@H](C)N(Cc4ccccc4)C[C@@H]3C)c2)CC1` [Example 68, (4-{3-[(R)-((2S,5R)-4-Benzyl-2,5-dimethyl-piperazin-1-yl)-(3-hydroxy-phenyl)-methyl]-benzoyl}-piperazin-1-yl)-acetic acid ethyl ester] showed a Seiz. of 80% 10 mg/kg IV. Further, the EC50 amounted to 526 nM in the series with guinea pig ileum and 1.91 nM with mouse vas deferens. Further, the Ki was 0.73 nM on human delta receptor and 1.22 nM at human mu opioid receptor.

Regarding `C[C@@H]1CN([C@@H](c2cccc(O)c2)c2cccc(C(=O)N3CCCN(CCC(=O)O)CC3)c2)[C@@H](C)CN1CC1CC1`, the Seiz. in series [1] (20 mg/kg IV) turned out to be 0% 20 mg/kg IV. For the same compound, the concentration for a half-maximal effect (EC50) came out at 664 nM in the series on guinea pig ileum and 66 nM with mouse vas deferens. Also, the Ki on human delta receptor is 69 nM; at human mu opioid receptor it was 22.3 nM.

For the compound `C[C@@H]1CN([C@@H](c2cccc(O)c2)c2cccc(C(=O)N3CCN(CC(=O)O)CC3)c2)[C@@H](C)CN1Cc1ccccc1` [Example 69, (4-{3-[(R)-((2S,5R)-4-Benzyl-2,5-dimethyl-piperazin-1-yl)-(3-hydroxy-phenyl)-methyl]-benzoyl}-piperazin-1-yl)-acetic acid], in series [1] (10 mg/kg IV), the Seiz. is listed as 0% 10 mg/kg IV. Moreover, the figures for the EC50 with guinea pig ileum and in the series with mouse vas deferens were 47.8 nM and 0.48 nM, respectively. Besides, the Ki worked out at 0.54 nM at human delta receptor and 1.36 nM at human mu opioid receptor.

On to `C[C@@H]1CN(C(c2cccc(O)c2)c2cccc(C(=O)N3CCCN(CCCC(=O)O)CC3)c2)[C@@H](C)CN1Cc1ccccc1` (some centres unmarked), for which the Seiz. in series [1] (10 mg/kg IV) was determined as 0% 10 mg/kg IV. Moreover, the EC50 in the series on guinea pig ileum is 159 nM; with mouse vas deferens, 1.07 nM. Besides, the Ki at human delta receptor came out at 14.8 nM; on human mu opioid receptor, 1.9 nM.

As for `C=CCN1C[C@H](C)N(C(c2cccc(O)c2)c2cccc(C(=O)N3CCCN(CC(=O)O)CC3)c2)C[C@H]1C` (some centres unmarked), the Ki on κ opioid receptor stood at 12.7 nM; on δ opioid receptor, 3.53 nM; on μ opioid receptor, 3.03 nM. Moreover, the Seiz. in series [1] (3 mg/kg IV) is given as 0%; in series [1] (10 mg/kg IV), 10%. In addition, a half-maximal effect with mouse vas deferens (EC50) was put at 4.7 nM.

`C=CCN1C[C@H](C)N([C@@H](c2cccc(O)c2)c2cccc(C(=O)N3CCC(C(=O)OCC)CC3)c2)C[C@H]1C` [Example 119, 1-{3-[(R)-((2S,5R)-4-Allyl-2,5-dimethylpiperazin-1-yl)-(3-hydroxy-phenyl)methyl]benzoyl}piperidine-4-carboxylic acid ethyl ester]: the Seiz. in series [1] (10 mg/kg IV) was found to be 80% 10 mg/kg IV. Also, the 50% effective concentration (EC50) in the series on guinea pig ileum was found to be 86.3 nM; in the series on mouse vas deferens, 1.96 nM. Moreover, the results for the Ki on human delta receptor and at human mu opioid receptor were 2.95 nM and 0.54 nM, respectively.

In series [1] (10 mg/kg IV), `CCOC(=O)C1CCN(C(=O)c2cccc([C@H](c3cccc(O)c3)N3C[C@@H](C)N(Cc4cccc(F)c4)C[C@@H]3C)c2)CC1` [Example 124, 1-{3-[(R)-[(2S,5R)-4-(3-Fluoro-benzyl)-2,5-dimethyl-piperazin-1-yl]-(3-hydroxy-phenyl)-methyl]-benzoyl}-piperidine-4-carboxylic acid ethyl ester] gave a Seiz. of 10% 10 mg/kg IV. In addition, the EC50 turned out to be 1680 nM in the series with guinea pig ileum and 2.54 nM with mouse vas deferens. Further, the Ki amounted to 28.6 nM at human delta receptor and 3.5 nM on human mu opioid receptor.

Consider `C=CCN1C[C@H](C)N(C(c2cccc(O)c2)c2cccc(C(=O)N3CCCNCC3)c2)C[C@H]1C` (some centres unmarked), for which the Ki on κ opioid receptor was determined as 1.6 nM; on δ opioid receptor, 4.68 nM; on μ opioid receptor it was 1.61 nM. The compound further showed a Seiz. in series [1] (10 mg/kg IV) of 45% 10 mg/kg IV. Moreover, it took 6.07 nM to reach a half-maximal effect with mouse vas deferens (EC50).

Consider `C=CCN1C[C@H](C)N(C(c2cccc(O)c2)c2cccc(C(=O)N3CCCN(Cc4ccc(C(=O)O)cc4)CC3)c2)C[C@H]1C` (some centres unmarked), for which, in series [1] (10 mg/kg IV), the Seiz. is 0% 10 mg/kg IV. For the same compound, the EC50 in the series on guinea pig ileum amounted to 150 nM; in the series with mouse vas deferens it was 3.1 nM. For the same compound, the Ki on human delta receptor came out at 0.39 nM; on human mu opioid receptor, 4 nM.

In the case of `CCOC(=O)C1CCN(C(=O)c2cccc([C@H](c3cccc(O)c3)N3C[C@@H](C)N(Cc4ccccc4)C[C@@H]3C)c2)CC1` [Example 122, 1-{3-[(R)-((2S,5R)-4-Benzyl-2,5-dimethyl-piperazin-1-yl)-(3-hydroxy-phenyl)-methyl]-benzoyl}-piperidine-4-carboxylic acid ethyl ester], in series [1] (10 mg/kg IV), the Seiz. was 70% 10 mg/kg IV. Further, the EC50 amounted to 153 nM with guinea pig ileum and 0.82 nM with mouse vas deferens. Besides, the Ki at human delta receptor turned out to be 4.5 nM; at human mu opioid receptor, 1.9 nM.

As usually defined, the EC50 is the concentration giving half of the maximal effect. Low readings indicate a more potent agent, high ones a less potent agent.
